Test results reported in PubChem BioAssay (NCI).
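48-hour exposure; five concentrations; linearly interpolated endpoints. GI50 = concentration required for 50% inhibition of growth. TGI marks complete inhibition of growth.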

Experiments:
Assay in all cases: NCI tumour cell line growth inhibition, 48 h
[1] = system: SW-620 colon
[2] = system: SK-OV-3 ovarian
[3] = system: A498 renal
[4] = system: BT-549 breast
[5] = system: SNB-19 CNS
[6] = system: K-562 leukemia
[7] = system: IGROV1 ovarian
[8] = system: HCT-15 colon
[9] = system: DU-145 prostate
[10] = system: SK-MEL-28 melanoma
[11] = system: MALME-3M melanoma
[12] = system: NCI-H522 lung
[13] = system: MDA-MB-435
[14] = system: SNB-75 CNS
[15] = system: HT29 colon
[16] = system: HOP-92 NSCLC
[17] = system: RXF 393 renal
[18] = system: SF-268 CNS
[19] = system: ACHN renal
[20] = system: NCI/ADR-RES ovarian
[21] = system: NCI-H460 lung
[22] = system: UACC-257 melanoma
[23] = system: HCC-2998 colon
[24] = system: OVCAR-4 ovarian
[25] = system: RPMI-8226 leukemia
[26] = system: SK-MEL-5 melanoma
[27] = system: MCF7 breast
[28] = system: M14 melanoma
[29] = system: SK-MEL-2 melanoma
[30] = system: SN12C renal
[31] = system: U251 CNS
[32] = system: SF-539 CNS
[33] = system: COLO 205 colon
[34] = system: SR leukemia
[35] = system: HS 578T breast
[36] = system: MOLT-4 leukemia
[37] = system: OVCAR-3 ovarian
[38] = system: 786-0 renal
[39] = system: HCT-116 colon
[40] = system: HL-60(TB) leukemia
[41] = system: NCI-H226 lung
[42] = system: CAKI-1 renal
[43] = system: PC-3 prostate
[44] = system: HOP-62 NSCLC
[45] = system: NCI-H23 lung
[46] = system: CCRF-CEM leukemia
[47] = system: TK-10 renal
[48] = system: OVCAR-5 ovarian
[49] = system: UO-31 renal
[50] = system: T-47D breast
[51] = system: UACC-62 melanoma

## N=C(N)c1ccc(-c2ccc(-c3cccs3)o2)cc1
[1]
  GI50: 1.77 µM
  TGI: 3.37 µM
[2]
  GI50: 2.4 µM
  TGI: 5.77 µM
[3]
  GI50: 1.8 µM
  TGI: 3.86 µM
[4]
  GI50: 2.05 µM
  TGI: 4.02 µM
[5]
  GI50: 2.43 µM
  TGI: 7.81 µM
[6]
  GI50: 2.27 µM
  TGI: 5.72 µM
[7]
  GI50: 1.92 µM
  TGI: 3.83 µM
[8]
  GI50: 1.86 µM
  TGI: 3.8 µM
[9]
  GI50: 2.91 µM
  TGI: 7.31 µM
[10]
  GI50: 1.71 µM
  TGI: 3.11 µM
[11]
  GI50: 1.91 µM
  TGI: 3.42 µM
[12]
  GI50: 2.01 µM
  TGI: 3.89 µM
[13]
  GI50: 1.76 µM
  TGI: 3.39 µM
[14]
  GI50: 1.71 µM
  TGI: 3.5 µM
[15]
  GI50: 1.89 µM
  TGI: 3.7 µM
[16]
  GI50: 1.4 µM
  TGI: 3.1 µM
[17]
  GI50: 1.69 µM
  TGI: 3.46 µM
[18]
  GI50: 2.19 µM
  TGI: 5.17 µM
[19]
  GI50: 1.86 µM
  TGI: 3.51 µM
[20]
  GI50: 2.88 µM
  TGI: 7.63 µM
[21]
  GI50: 1.79 µM
  TGI: 3.41 µM
[22]
  GI50: 1.98 µM
  TGI: 3.63 µM
[23]
  GI50: 1.87 µM
  TGI: 3.41 µM
[24]
  GI50: 2.35 µM
  TGI: 5.72 µM
[25]
  GI50: 2.12 µM
  TGI: 4.98 µM
[26]
  GI50: 1.65 µM
  TGI: 3.02 µM
[27]
  GI50: 1.69 µM
  TGI: 3.29 µM
[28]
  GI50: 1.9 µM
  TGI: 3.39 µM
[29]
  GI50: 2.19 µM
  TGI: 4.04 µM
[30]
  GI50: 1.97 µM
  TGI: 4.38 µM
[31]
  GI50: 1.76 µM
  TGI: 3.37 µM
[32]
  GI50: 1.68 µM
  TGI: 3.14 µM
[33]
  GI50: 1.91 µM
  TGI: 3.49 µM
[34]
  GI50: 2.99 µM
  TGI: 8.54 µM
[35]
  GI50: 2.14 µM
  TGI: 5.25 µM
[36]
  GI50: 2.34 µM
  TGI: 4.89 µM
[37]
  GI50: 2.25 µM
  TGI: 4.92 µM
[38]
  GI50: 1.89 µM
  TGI: 3.44 µM
[39]
  GI50: 1.83 µM
  TGI: 3.23 µM
[40]
  GI50: 1.82 µM
  TGI: 4.11 µM
[41]
  GI50: 2.07 µM
  TGI: 5.13 µM
[42]
  GI50: 2.14 µM
  TGI: 5.2 µM
[43]
  GI50: 2.13 µM
  TGI: 5.56 µM
[44]
  GI50: 2.04 µM
  TGI: 4.32 µM
[45]
  GI50: 3.63 µM
  TGI: 13.2 µM
[46]
  GI50: 2.33 µM
  TGI: 5.9 µM
[47]
  GI50: 1.95 µM
  TGI: 3.44 µM
[48]
  GI50: 2.02 µM
  TGI: 6.2 µM
[49]
  GI50: 1.9 µM
  TGI: 3.74 µM
[50]
  GI50: 2.17 µM
  TGI: 4.88 µM
[51]
  GI50: 1.75 µM
  TGI: 3.35 µM
